From patent US20210040073A1, “AZABICYCLO-SUBSTITUTED TRIAZOLE DERIVATIVE, PREPARATION METHOD THEREOF, AND APPLICATION OF SAME IN MEDICINE” (Jiangsu Hengrui Medicine Co., Ltd., priority 2016, published 2021)

Tests used:
human V1bR = target: T1, human V1bR (Homo sapiens, UniProt P47901); assay: Inhibition activity on human V1bR (Fluo-4 calcium assay, HEK293/human V1bR pool cells, vasopressin 3 nM); assay type: cell-based; conditions: calcium signal
T1 construct: expressed in transfected cells; host or cells: HEK293 (G418-selected pool)
T1 sequence (P47901 1-424): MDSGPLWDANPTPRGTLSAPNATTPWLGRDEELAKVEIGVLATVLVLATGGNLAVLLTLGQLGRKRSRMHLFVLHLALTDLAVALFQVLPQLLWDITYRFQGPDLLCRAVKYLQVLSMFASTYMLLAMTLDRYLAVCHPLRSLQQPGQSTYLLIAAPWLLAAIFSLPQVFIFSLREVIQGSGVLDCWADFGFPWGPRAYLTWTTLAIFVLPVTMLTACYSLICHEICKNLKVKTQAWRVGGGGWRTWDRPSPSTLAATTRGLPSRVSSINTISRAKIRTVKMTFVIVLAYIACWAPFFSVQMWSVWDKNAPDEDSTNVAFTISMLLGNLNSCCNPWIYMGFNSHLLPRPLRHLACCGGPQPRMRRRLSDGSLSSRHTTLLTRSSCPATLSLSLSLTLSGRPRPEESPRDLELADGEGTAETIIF
Procedure: The inhibition effect of the compounds of the present invention on the activity of human V1bR protein expressed in HEK293/human V1bR cells was determined by the following experimental method:
The pcDNA3.1-V1bR plasmid was transferred into HEK293 cells with the Lipofectamine® 3000 transfection reagent; G418 was added on the next day, and the HEK293/human V1bR pool cell lines were obtained.
(§1) HEK293/human V1bR pool cells were inoculated in a 96-well plate with an inoculation density of 25,000 cells/well one day in advance. On the next day, a loading buffer containing Fluo-4 dye was formulated using the reagents in the Fluo-4 NW calcium assay kit, and the culture medium was then removed; 100 μl of the loading buffer containing Fluo-4 dye were added to each well, and the plate was incubated at 37° C. for 30 minutes. After that, the plate was moved to room temperature and equilibrated for 10 minutes. The compounds were formulated into concentration gradients of 10^6, 10^5, 10^4, 10^3, 10^2 and 10^1 nM. 1 μl of the compounds in each concentration was added to each well, and the plate was incubated at room temperature for 10 minutes. […] IC50 values of the compounds were calculated by Graphpad prism software using fluorescence signals corresponding to different concentrations.

human V1aR = target: T2, human V1aR (Homo sapiens, UniProt P37288); assay: Inhibition activity on human V1aR (Fluo-4 calcium assay, HEK293/human V1aR stably transfected cells, vasopressin 3 nM); assay type: cell-based; conditions: calcium signal
T2 construct: expressed in transfected cells
T2 sequence (P37288 whole entry): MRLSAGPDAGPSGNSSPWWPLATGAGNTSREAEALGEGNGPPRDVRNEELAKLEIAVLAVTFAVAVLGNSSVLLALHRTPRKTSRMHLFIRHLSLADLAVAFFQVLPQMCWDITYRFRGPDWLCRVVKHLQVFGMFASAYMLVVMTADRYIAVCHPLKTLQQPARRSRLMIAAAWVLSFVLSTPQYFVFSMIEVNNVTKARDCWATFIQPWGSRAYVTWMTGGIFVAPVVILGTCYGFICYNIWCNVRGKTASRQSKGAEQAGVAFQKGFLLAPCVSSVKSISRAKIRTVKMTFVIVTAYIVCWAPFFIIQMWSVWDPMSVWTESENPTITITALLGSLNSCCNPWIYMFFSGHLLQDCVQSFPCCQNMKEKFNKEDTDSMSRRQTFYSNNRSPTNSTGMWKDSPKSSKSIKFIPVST
Procedure: The inhibition effect of the compounds of the present invention on the activity of human V1aR protein expressed in HEK293/human V1aR stably transfected cells was determined by the following experimental method:
The pcDNA3.1-V1aR plasmid was transferred into HEK293 cells with the Lipofectamine® 3000 transfection reagent; G418 was added on the next day to screen, and monoclonal cell lines were selected.
as §1, with “V1aR stably transfected” for “V1bR pool”
The inhibition activity of the compounds of the present invention on human V1aR was determined by the above test, and the obtained IC50 values are shown in Table 2.

human OTR = target: T3, human OTR (Homo sapiens, UniProt P30559); assay: Inhibition activity on human OTR (Fluo-4 calcium assay, HEK293/human OTR stably transfected cells, oxytocin 3 nM); assay type: cell-based; conditions: calcium signal
T3 construct: expressed in transfected cells
T3 sequence (P30559 1-389): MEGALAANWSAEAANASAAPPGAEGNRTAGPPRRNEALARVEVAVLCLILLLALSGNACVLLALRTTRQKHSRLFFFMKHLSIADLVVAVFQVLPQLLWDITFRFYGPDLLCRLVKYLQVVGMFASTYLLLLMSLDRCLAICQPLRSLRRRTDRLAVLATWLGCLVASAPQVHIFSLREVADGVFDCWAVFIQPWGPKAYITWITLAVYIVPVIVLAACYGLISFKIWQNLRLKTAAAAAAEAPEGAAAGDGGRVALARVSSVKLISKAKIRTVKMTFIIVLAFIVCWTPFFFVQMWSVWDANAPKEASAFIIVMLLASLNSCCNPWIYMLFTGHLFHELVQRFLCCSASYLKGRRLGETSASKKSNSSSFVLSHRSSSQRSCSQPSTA
Procedure: The inhibition effect of the compounds of the present invention on the activity of human OTR protein expressed in HEK293/human OTR stably transfected cells was determined by the following experimental method:
The pcDNA3.1-hOTR plasmid was transferred into HEK293 cells with the Lipofectamine® 3000 transfection reagent; G418 was added on the next day to screen, and monoclonal cell lines were selected.
HEK293/human OTR stably transfected cells were inoculated in a 96-well plate with an inoculation density of 25,000 cells/well one day in advance. On the next day, a loading buffer containing Fluo-4 dye was formulated using the reagents in the Fluo-4 NW calcium assay kit, and the culture medium was then removed; 100 μl of the loading buffer containing Fluo-4 dye were added to each well, and the plate was incubated at 37° C. for 30 minutes. After that, the plate was moved to room temperature and equilibrated for 10 minutes. The compounds were formulated into concentration gradients of 10^6, 10^5, 10^4, 10^3, 10^2 and 10^1 nM. 1 μl of the compounds in each concentration was added to each well, and the plate was incubated at room temperature for 10 minutes. 50 μl of oxytocin polypeptide (3 nM) were automatically added by the machine, and the values were immediately detected at 494/516 nM by the flexstation 3 microplate reader. IC50 values of the compounds were calculated by Graphpad prism software using fluorescence signals corresponding to different concentrations.
The inhibition activity of the compounds of the present invention on human OTR was determined by the above test, and the obtained IC50 values are shown in Table 1.

[1] = Pharmacokinetics assay in rats after intragastrical administration; conditions: both, Sprague-Dawley, rat, plasma, po, 2 mg/kg
Procedure: Rats were used as test animals. […] The pharmacokinetic behavior of the compounds of the present invention was studied and evaluated in rats.
After an overnight fast, SD rats were administered intragastrically the test compounds at an administration dosage of 2.0 mg/kg and an administration volume of 10.0 mL/kg.
0.2 mL of blood was taken from the orbital sinus before administration and at 0.5, 1.0, 2.0, 4.0, 6.0, 8.0, 11.0 and 24.0 hours after administration. The samples were stored in heparinized tubes, and centrifuged for 10 minutes at 4° C. at 3,500 rpm to separate the blood plasma. The plasma samples were stored at −20° C. The rats were fed 2 hours after administration.
The content of the test compounds in the plasma of rats after intragastrical administration of the test compounds at different concentrations was determined: 25 μL of rat plasma at each time after administration was taken, added with 50 μL of the internal standard solution of camptothecin (100 ng/mL) and 200 μL of acetonitrile, vortex-mixed for 5 minutes, and centrifuged for 10 minutes (4000 rpm). 1.0 μL of the supernatant was taken from the plasma samples for LC/MS/MS analysis.

human V2R = target: T4, human V2R (Homo sapiens, UniProt P30518); assay: Inhibition activity on human V2R (cAMP HTRF assay, HEK293/human V2R pool cells, vasopressin); assay type: cell-based
T4 construct: expressed in transfected cells; host or cells: HEK293 (G418-selected pool)
T4 sequence (P30518 whole entry): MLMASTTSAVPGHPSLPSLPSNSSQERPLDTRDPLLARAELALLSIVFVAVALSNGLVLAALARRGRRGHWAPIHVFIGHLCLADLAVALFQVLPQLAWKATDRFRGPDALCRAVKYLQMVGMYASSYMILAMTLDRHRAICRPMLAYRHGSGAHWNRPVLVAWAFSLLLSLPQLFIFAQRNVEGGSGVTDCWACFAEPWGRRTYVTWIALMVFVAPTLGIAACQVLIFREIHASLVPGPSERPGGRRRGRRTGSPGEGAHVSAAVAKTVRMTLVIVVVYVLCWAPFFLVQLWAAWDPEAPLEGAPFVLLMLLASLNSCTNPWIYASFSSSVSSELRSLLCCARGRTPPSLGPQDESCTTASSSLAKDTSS
Procedure: The inhibition effect of the compounds of the present invention on the activity of human V2R protein expressed in HEK293/human V2R cells was determined by the following experimental method:
The pcDNA3.1-V2R plasmid was transferred into HEK293 cells with the Lipofectamine® 3000 transfection reagent; G418 was added on the next day, and the HEK293/human V2R pool cell lines were obtained.
HEK293/human V2R pool cells were digested with the cell dissociation solution (enzyme-free), thereby dissociating the cells from the cell culture dish into individual cells. After completion, the cell solution was blown well, and centrifuged to remove the supernatant. The cells were re-suspended in the test buffer 1 (1×HBSS+20 mM HEPES+0.1% BSA) and counted. The cell density was adjusted to 1250 cells/5 μl, i.e., 2.5*10^5/ml.
The compounds were formulated into a series of concentrations of 20 mM, 6.67 mM, 2.22 mM, 0.74 mM, 0.25 mM, 0.08 mM, 27.4 μM, 9.14 μM, 3.05 μM, 1.02 μM, 0.34 μM and 0 μM (DMSO) with pure DMSO. The compounds were then formulated into a 4-fold use concentration with the test buffer 2 (test buffer 1+1 mM IBMX).
Agonist: 460 μM vasopressin was used as the mother liquor, formulated as a 2 μM solution with DMSO, which was then diluted to a 0.5 nM solution with the test buffer 2.
Standard: The first point was 20 μl of a stock solution (2848 nM), which was diluted successively to a total of eleven concentrations in a 4-fold concentration gradient with the test buffer 1 from the second point.
1. The well-mixed cells were added to a 384-well plate (5 μl/well) without changing the tip.
2. The test compounds and positive compound formulated were added (2.5 μl/well), and the tips were changed.
3. The plate was centrifuged at 1000 rpm for 1 min, shaken for 30 sec to mix well, and incubated at room temperature for 30 min.
4. The standard curve wells were added with the test buffer 2 (5 μl/well).
5. The agonist formulated was added (2.5 μl/well), and the tips were changed; the plate was centrifuged at 1000 rpm for 1 min, shaken for 30 sec to mix well, and incubated at room temperature for 30 min.
6. cAMP-d2 (a component in the cAMP dynamic 2 kit) and Anti-cAMP-Eu-Cryptate (a component in the cAMP dynamic 2 kit) were formulated in the dark, which were then mixed well with cAMP lysate (a component in the cAMP dynamic 2 kit) in a ratio of 1:4. Each well was added with the formulated cAMP-d2 solution (5 μl/well), followed by addition of Anti-cAMP-Eu-Cryptate (5 μl/well). The plate was shaken for 30 sec to mix well, and incubated in the dark at room temperature for 1 h.
4) Plate reading: The HTRF signals were read by the PheraStar multi-function microplate reader.
The data in this test was processed using the data processing software Graphpad Prism.
The inhibition activity of the compounds of the present invention on human V2R was determined by the above test, and the obtained IC50 values are shown in Table 4.

Compound | IC50 (human V1bR) [µM] | IC50 (human V1aR) [µM] | IC50 (human OTR) [µM] | AUC [1] [ng·h/mL] | CL/F [1] [mL/min/kg] | Cmax [1] [ng/mL] | MRT [1] [h] | Vd/F [1] [L/kg] | half-life [1] [h] | IC50 (human V2R) [µM]
COc1ccc(-n2c(CO[C@H]3CCOC3)nnc2N2C[C@@H]3C[C@]3(c3ccc(F)cc3Cl)C2)cn1 [Example 3, (1S,5R)-1-(2-Chloro-4-fluorophenyl)-3-(4-(6-methoxypyridin-3-yl)-5-((((S)-tetrahydrofuran-3-yl)oxy)methyl)-4H-1,2,4-triazol-3-yl)-3-azabicyclo[3.1.0]hexane] | 56.7 | 7.5 | – | – | – | – | – | – | – | 23
COCc1nnc(N2C[C@@H]3C[C@]3(c3ccc(F)cc3Cl)C2)n1-c1ccc2c(c1)OCO2 [Example 5, (1S,5R)-3-(4-(Benzo[d][1,3]dioxol-5-yl)-5-(methoxymethyl)-4H-1,2,4-triazol-3-yl)-1-(2-chloro-4-fluorophenyl)-3-azabicyclo[3.1.0]hexane] | – | 1 | 0.131 | – | – | – | – | – | – | –
COc1ccc(-n2c(COC3CCOCC3)nnc2N2C[C@@H]3C[C@]3(c3ccc(F)cc3Cl)C2)cn1 [Example 2, (1S,5R)-1-(2-Chloro-4-fluorophenyl)-3-(4-(6-methoxypyridin-3-yl)-5-(((tetrahydro-2H-pyran-4-yl)oxy)methyl)-4H-1,2,4-triazol-3-yl)-3-azabicyclo[3.1.0]hexane] | – | 4.7 | – | – | – | – | – | – | – | –
COc1ccc(-n2c(C(F)F)nnc2N2C[C@@H]3C[C@]3(c3ccc(F)cc3Cl)C2)cn1 [Example 13, (1S,5R)-1-(2-Chloro-4-fluorophenyl)-3-(5-(difluoromethyl)-4-(6-methoxypyridin-3-yl)-4H-1,2,4-triazol-3-yl)-3-azabicyclo[3.1.0]hexane] | – | 1.9 | 0.052 | – | – | – | – | – | – | –
[2H]C([2H])([2H])OCc1nnc(N2C[C@@H]3C[C@]3(c3ccc(F)cc3Cl)C2)n1-c1ccc(OC)nc1 [Example 14, (1S,5R)-1-(2-Chloro-4-fluorophenyl)-3-(5-((methoxy-d3)methyl)-4-(6-methoxypyridin-3-yl)-4H-1,2,4-triazol-3-yl)-3-azabicyclo[3.1.0]hexane] | 20.5 | – | 0.068 | – | – | – | – | – | – | 10.4

The next lines start with the values.

IC50 (human V1bR) [µM] | IC50 (human V1aR) [µM] | IC50 (human OTR) [µM] | AUC [1] [ng·h/mL] | CL/F [1] [mL/min/kg] | Cmax [1] [ng/mL] | MRT [1] [h] | Vd/F [1] [L/kg] | half-life [1] [h] | IC50 (human V2R) [µM] | Compound
43.3 | 3 | 0.023 | 1980 ± 1020 | 23.3 ± 18 | 635 ± 273 | 2.18 ± 0.24 | 1.94 ± 0.983 | 1.08 ± 0.21 | – | COCc1nnc(N2CC3CC3(c3ccc(F)cc3Cl)C2)n1-c1ccc(OC)nc1 (stereo not drawn) [Example 8, 1-(2-Chloro-4-fluorophenyl)-3-(5-(methoxymethyl)-4-(6-methoxypyridin-3-yl)-4H-1,2,4-triazol-3-yl)-3-azabicyclo[3.1.0]hexane]
12.4 | 2 | – | – | – | – | – | – | – | 90 | COc1ccc(-n2c(C)nnc2N2C[C@@H]3C[C@]3(c3ccc(F)cc3Cl)C2)cn1 [Example 7, (1S,5R)-1-(2-Chloro-4-fluorophenyl)-3-(4-(6-methoxypyridin-3-yl)-5-methyl-4H-1,2,4-triazol-3-yl)-3-azabicyclo[3.1.0]hexane]
7.8 | – | 0.001 | 3980 ± 2970 | 12.6 ± 8.03 | 405 ± 110 | 5.82 ± 2.73 | 2.46 ± 0.706 | 2.86 ± 1.27 | 6.8 | COc1ccc(-n2c(COC(F)F)nnc2N2C[C@@H]3C[C@]3(c3ccc(F)cc3Cl)C2)cn1 [Example 11, (1S,5R)-1-(2-Chloro-4-fluorophenyl)-3-(5-((difluoromethoxy)methyl)-4-(6-methoxypyridin-3-yl)-4H-1,2,4-triazol-3-yl)-3-azabicyclo[3.1.0]hexane]
– | – | 0.624 | – | – | – | – | – | – | – | COCc1nnc(N2C[C@H]3C[C@@]3(c3ccc(F)cc3Cl)C2)n1-c1ccc(OC)nc1 [Example 10, (1R,5S)-1-(2-Chloro-4-fluorophenyl)-3-(5-(methoxymethyl)-4-(6-methoxypyridin-3-yl)-4H-1,2,4-triazol-3-yl)-3-azabicyclo[3.1.0]hexane]
